Tests used:
Test in all cases: combination Emax (second highest fraction inhibited in the dose matrix, 72 h); higher = more inhibition; extreme values may be limits of the assay
8-MG-BA (Glioblastoma) = tested on: 8-MG-BA (Glioblastoma)
Summary of the method: (§1)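 Cell lines in DMEM/F12 or RPMI with 10% FBS were plated in 1536-well plates, held 24 hours at 37°C, 5% CO2, then given two-drug dose matrices for 72 hours (DMSO typically 0.2%). Viability was read by CellTiter-Glo 2.0 luminescence and scaled as inhibition from 0 (vehicle wells) to 1 (blank wells). Combination Emax is the second-highest inhibition in the matrix; Bliss excess is observed combination effect minus expected EA + EB − EA·EB, EA and EB being single-agent effects.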

[1] = tested on: A3-KAW (B-Cell Non-Hodgkin's Lymphoma)
Summary of the method: as §1

A498 (Kidney Carcinoma) = tested on: A498 (Kidney Carcinoma)
Summary of the method: as §1

[2] = tested on: A549 (Lung Adenocarcinoma)
Summary of the method: as §1

ARH-77 (Non-Cancerous) = tested on: ARH-77 (Non-Cancerous)
Summary of the method: as §1

[3] = tested on: BICR22 (Oral Cavity Carcinoma)
Summary of the method: as §1

[4] = tested on: CAL-29 (Bladder Carcinoma)
Summary of the method: as §1

[5] = tested on: CAPAN-2 (Pancreatic Carcinoma)
Summary of the method: as §1

CAS-1 (Glioblastoma) = tested on: CAS-1 (Glioblastoma)
Summary of the method: as §1

[6] = tested on: COR-L311 (Small Cell Lung Carcinoma)
Summary of the method: as §1

Hs-445 (Non-Cancerous) = tested on: Hs-445 (Non-Cancerous)
Summary of the method: as §1

IGR-37 (Melanoma) = tested on: IGR-37 (Melanoma)
Summary of the method: as §1

[7] = tested on: JSC-1 (B-Cell Non-Hodgkin's Lymphoma)
Summary of the method: as §1

NY (Osteosarcoma) = tested on: NY (Osteosarcoma)
Summary of the method: as §1

[8] = tested on: ONS-76 (Other Solid Carcinomas)
Summary of the method: as §1

[9] = tested on: OS-RC-2 (Kidney Carcinoma)
Summary of the method: as §1

[10] = tested on: PANC-10-05 (Pancreatic Carcinoma)
Summary of the method: as §1

[11] = tested on: SISO (Cervical Carcinoma)
Summary of the method: as §1

[12] = tested on: TT (Thyroid Gland Carcinoma)
Summary of the method: as §1

[13] = tested on: VCaP (Prostate Carcinoma)
Summary of the method: as §1

Compound | combination Emax (8-MG-BA (Glioblastoma)) | combination Emax [1] | combination Emax (A498 (Kidney Carcinoma)) | combination Emax [2] | combination Emax (ARH-77 (Non-Cancerous)) | combination Emax [3] | combination Emax [4] | combination Emax [5] | combination Emax (CAS-1 (Glioblastoma)) | combination Emax [6] | combination Emax (Hs-445 (Non-Cancerous)) | combination Emax (IGR-37 (Melanoma)) | combination Emax [7] | combination Emax (NY (Osteosarcoma)) | combination Emax [8] | combination Emax [9] | combination Emax [10] | combination Emax [11] | combination Emax [12] | combination Emax [13]
COc1nnc2ccc(N3CCC(c4ccc(OCCN5CCN(C)C(=O)[C@H]5C)cc4)CC3)nn12 [AZD5153] + CC1(C)CCC(CN2CCN(c3ccc(C(=O)NS(=O)(=O)c4ccc(NCC5CCOCC5)c([N+](=O)[O-])c4)c(Oc4cnc5[nH]ccc5c4)c3)CC2)=C(c2ccc(Cl)cc2)C1 [Venetoclax] (first compound max 1 µM, 7x7, partner max 1 µM) | 0.707 | 1 | 0.439 | 0.707 | 0.861 | 0.235 | 0.327 | 0.299 | 0.622 | 0.934 | 0.724 | 0.65 | 0.769 | 0.542 | 0.538 | 0.273 | 0.474 | 0.33 | 0.596 | 0.777
COc1nnc2ccc(N3CCC(c4ccc(OCCN5CCN(C)C(=O)[C@H]5C)cc4)CC3)nn12 [AZD5153] + CCN(CCO)CCCOc1ccc2c(Nc3cc(CC(=O)Nc4cccc(F)c4)[nH]n3)ncnc2c1 [AZD2811] (first compound max 1 µM, 7x7, partner max 1 µM) | 0.74 | 1 | 0.459 | 0.834 | 0.82 | 0.463 | 0.372 | 0.296 | 0.646 | 0.936 | 0.509 | 0.597 | 0.775 | 0.517 | 0.56 | 0.304 | 0.554 | 0.486 | 0.692 | 0.789
COc1nnc2ccc(N3CCC(c4ccc(OCCN5CCN(C)C(=O)[C@H]5C)cc4)CC3)nn12 [AZD5153] + C[C@@H]1COCCN1C2=NC(=NC(=C2)C3(CC3)[S@](=N)(=O)C)C4=C5C=CNC5=NC=C4 [AZD6738] (first compound max 1 µM, 7x7, partner max 10 µM) | 0.837 | 1 | 0.65 | 0.912 | 0.991 | 0.709 | 0.7 | 0.379 | 0.712 | 0.95 | 0.727 | 0.757 | 0.901 | 0.627 | 0.747 | 0.467 | 0.682 | 0.757 | 0.629 | 0.839
COc1nnc2ccc(N3CCC(c4ccc(OCCN5CCN(C)C(=O)[C@H]5C)cc4)CC3)nn12 [AZD5153] + Cc1c2c(nn1C)CSCc1cc(n(C)n1)CSc1cc(c3ccccc3c1)OCCCc1c(C(=O)O)n(C)c3c-2c(Cl)ccc13 [AZD5991] (first compound max 1 µM, 7x7, partner max 1 µM) | 0.94 | 1 | 0.529 | 0.821 | 0.831 | 0.901 | 0.355 | 0.296 | 0.64 | 0.971 | 0.618 | 0.949 | 1 | 0.688 | 0.497 | 0.372 | 0.515 | 0.508 | 0.623 | 0.988
COc1nnc2ccc(N3CCC(c4ccc(OCCN5CCN(C)C(=O)[C@H]5C)cc4)CC3)nn12 [AZD5153] + Cn1cnc2c(F)c(Nc3ccc(Br)cc3Cl)c(C(=O)NOCCO)cc21 [Selumetinib] (first compound max 1 µM, 7x7, partner max 10 µM) | 0.796 | 1 | 0.867 | 0.917 | 0.839 | 0.564 | 0.595 | 0.452 | 0.599 | 0.847 | 0.555 | 1 | 0.805 | 0.52 | 0.697 | 0.343 | 0.633 | 0.452 | 0.524 | 0.797
Cc1c2c(nn1C)CSCc1cc(n(C)n1)CSc1cc(c3ccccc3c1)OCCCc1c(C(=O)O)n(C)c3c-2c(Cl)ccc13 [AZD5991] + C1CN(CCC1(C(=O)N[C@@H](CCO)C2=CC=C(C=C2)Cl)N)C3=NC=NC4=C3C=CN4 [Capivasertib] (first compound max 1 µM, 7x7, partner max 3 µM) | 0.85 | 1 | 0.561 | 0.379 | 0.915 | 0.689 | 0.342 | 0.227 | 0.573 | 0.718 | 0.988 | 0.207 | 1 | 0.492 | 0.249 | 0.256 | 0.357 | 0.173 | 0.366 | 1
Cc1c2c(nn1C)CSCc1cc(n(C)n1)CSc1cc(c3ccccc3c1)OCCCc1c(C(=O)O)n(C)c3c-2c(Cl)ccc13 [AZD5991] + C=CCn1c(=O)c2cnc(Nc3ccc(N4CCN(C)CC4)cc3)nc2n1-c1cccc(C(C)(C)O)n1 [AZD1775] (first compound max 1 µM, partner max 1 µM) | 0.906 | 1 | 0.602 | 0.425 | 0.995 | 0.717 | 0.919 | 0.428 | 0.852 | 0.812 | 1 | 0.768 | 1 | 0.747 | 0.584 | 0.303 | 0.573 | 0.663 | 0.428 | 0.916
Cc1c2c(nn1C)CSCc1cc(n(C)n1)CSc1cc(c3ccccc3c1)OCCCc1c(C(=O)O)n(C)c3c-2c(Cl)ccc13 [AZD5991] + CC1(C)CCC(CN2CCN(c3ccc(C(=O)NS(=O)(=O)c4ccc(NCC5CCOCC5)c([N+](=O)[O-])c4)c(Oc4cnc5[nH]ccc5c4)c3)CC2)=C(c2ccc(Cl)cc2)C1 [Venetoclax] (first compound max 1 µM, 7x7, partner max 1 µM) | 0.855 | 1 | 0.361 | 0.216 | 0.859 | 0.727 | 0.391 | 0.153 | 0.286 | 0.938 | 0.962 | 0.282 | 1 | 0.729 | 0.211 | 0.133 | 0.188 | 0.151 | 0.83 | 0.913
Cc1c2c(nn1C)CSCc1cc(n(C)n1)CSc1cc(c3ccccc3c1)OCCCc1c(C(=O)O)n(C)c3c-2c(Cl)ccc13 [AZD5991] + CCN(CCO)CCCOc1ccc2c(Nc3cc(CC(=O)Nc4cccc(F)c4)[nH]n3)ncnc2c1 [AZD2811] (first compound max 1 µM, 7x7, partner max 1 µM) | 0.836 | 1 | 0.352 | 0.41 | 0.904 | 0.675 | 0.739 | 0.239 | 0.705 | 0.906 | 0.968 | 0.24 | 1 | 0.48 | 0.386 | 0.21 | 0.303 | 0.808 | 0.574 | 0.94
Cc1c2c(nn1C)CSCc1cc(n(C)n1)CSc1cc(c3ccccc3c1)OCCCc1c(C(=O)O)n(C)c3c-2c(Cl)ccc13 [AZD5991] + CN(C)CCCOc1ccc(-c2ccc3ncc4c(c3c2)n(C2CCOCC2)c(=O)n4C)cn1 [AZD0156] (first compound max 1 µM, 7x7, partner max 1 µM) | 0.586 | 1 | 0.392 | 0.323 | 0.867 | 0.323 | 0.545 | 0.276 | 0.532 | 0.433 | 0.949 | 0.282 | 1 | 0.399 | 0.239 | 0.25 | 0.334 | 0.201 | 0.297 | 0.913
Cc1c2c(nn1C)CSCc1cc(n(C)n1)CSc1cc(c3ccccc3c1)OCCCc1c(C(=O)O)n(C)c3c-2c(Cl)ccc13 [AZD5991] + C[C@@H]1COCCN1C2=NC(=NC(=C2)C3(CC3)[S@](=N)(=O)C)C4=C5C=CNC5=NC=C4 [AZD6738] (first compound max 1 µM, 7x7, partner max 10 µM) | 0.961 | 1 | 0.621 | 0.726 | 0.976 | 0.846 | 0.897 | 0.35 | 0.877 | 0.752 | 1 | 0.848 | 1 | 0.805 | 0.821 | 0.363 | 0.488 | 0.607 | 0.56 | 0.947
Cc1c2c(nn1C)CSCc1cc(n(C)n1)CSc1cc(c3ccccc3c1)OCCCc1c(C(=O)O)n(C)c3c-2c(Cl)ccc13 [AZD5991] + C[C@@H](Nc1cc(F)cc(F)c1)c1cc(C(=O)N(C)C)cc2c(=O)cc(N3CCOCC3)oc12 [AZD8186] (first compound max 1 µM, 7x7, partner max 3 µM) | 0.734 | 1 | 0.742 | 0.476 | 0.928 | 0.537 | 0.421 | 0.252 | 0.467 | 0.508 | 0.929 | 0.325 | 1 | 0.631 | 0.244 | 0.471 | 0.311 | 0.123 | 0.394 | 0.935

— the supplement of paper PMC11061612
